This note sets out measurements from patent publication US9468624B2, “Small molecule antagonists of bacterial quorum-sensing receptors” (priority 2008, dated 2016).

Where two headings read alike, the source gives them in different places.

Experiment [1] relates to CviR-dependent violacein production. The experiment is described as follows: Violacein production in wild type C. violaceum, dose-response. Format: cell-based. The settings on record: Chromobacterium violaceum, read-out: IC50 for inhibition of violacein production. How it is done: (§1) E. coli strains were grown overnight in LB medium with antibiotics at 37° C. and sub-cultured into fresh medium at a 1:100 dilution. Various AHL and antagonists were added at constant concentrations or titrated as stated. The gfp was measured on an Envision plate reader after 5 hours of growth at 37° C. C. violaceum strains were grown aerobically in 1 mL Nutrient Broth plus 1 mM tryptophan at 30° C. […] Cells were collected via centrifugation at 13000 rpm for 15 minutes. Pellets were resuspended in 1 mL of methanol and incubated at 42° C. for 1 hour. Samples were again collected via centrifugation at 13000 rpm for 5 minutes and analyzed for violacein by measuring optical density at 568 nm on a Beckman Coulter DU-800 spectrophotometer. For the dose-response analyses, all assays were performed in triplicate.
To determine if 4606-4237 inhibits violacein production specifically by interfering with CviR, 4606-4237 was tested for antagonism of CviR in the recombinant E. coli vioA-gfp assay. For these experiments, C6-HSL was held constant at 500 nM, while 4606-4237 was titrated from 1.3 nM to 100 μM (FIG. 3D). This concentration of native C6-HSL signal induces maximal gfp production in this heterologous assay system. Importantly, no C. violaceum components other than CviR are present in the recombinant E. coli assay strain. Thus, any inhibition occurring would be due to a specific interaction between the antagonist molecule 4606-4237 and CviR rather than an interaction of 4606-4237 with some unknown component required for violacein production in C. violaceum. […] Thus, 4606-4237 functions by disabling CviR-mediated activation of gene expression in both the C. violaceum in vivo violacein assay and the recombinant E. coli vioA-gfp assay.

The subject of experiment [2] is C. violaceum killing of C. elegans. The experiment is described as follows: C. elegans life span assay following C. violaceum infection. The experiment is classed as in vivo, Caenorhabditis elegans. The settings on record: wild type C. violaceum, CL 20 μM; untreated two days. As for the experimental part:
Life Span Assays. C. elegans lifespan assays were completed with at least 100 wild type N2 worms for each condition. C. elegans eggs were harvested from a large population of gravid adults using a standard bleaching protocol (30 mL 5% bleach, 15 mL N KOH, 55 mL DH2O). Harvested eggs were placed on lawns of fresh E. coli OP50 and allowed to hatch and grow to the young adult (L4) stage before being moved onto lawns of C. violaceum. Worms were scored for survival each day and transferred to new C. violaceum lawns every two days until all worms had expired.
In the presence of the mutant strain, the median C. elegans lifespan is twelve days (FIG. 7A; DMSO control). Exogenous addition of the native autoinducer molecule, C6-HSL restored quorum sensing and complemented the cviI mutant's ability to kill C. elegans (median lifespan=4 days, FIG. 7A).

The target of experiment [3] is CviR (Chromobacterium violaceum, UniProt D3W065). The experiment is described as follows: cell-based. The experiment is classed as cell-based. Also noted: made in house; host or cells: E. coli BL21(DE3) pLysS, plasmid pET23b. As for the experimental part: The vioA-gfp promoter fusion was constructed by amplifying the vioA promoter and cloning this region upstream of gfp in pEVS141 at the SphI and SalI sites. Cells containing the vioA-gfp construct were electroporated with the pET23 carrying cviR and selected on LB medium supplemented with 75 μg/mL ampicillin and 50 μg/mL kanamycin. The E. coli strain containing cviR and the vio:gfp reporter is named ELS1257.
Chain of CviR (D3W065 1-265): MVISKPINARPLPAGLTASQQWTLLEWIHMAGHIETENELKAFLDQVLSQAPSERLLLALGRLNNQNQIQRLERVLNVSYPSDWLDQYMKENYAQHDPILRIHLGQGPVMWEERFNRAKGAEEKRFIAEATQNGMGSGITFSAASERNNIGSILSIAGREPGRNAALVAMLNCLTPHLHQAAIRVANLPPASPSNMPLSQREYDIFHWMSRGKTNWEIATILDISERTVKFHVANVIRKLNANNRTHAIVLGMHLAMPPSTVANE
as §1
However, binding of the longer acyl-tail length AHL molecules disrupts the transcriptional activation ability of CviR.
To determine if 4606-4237 inhibits violacein production specifically by interfering with CviR, 4606-4237 was tested for antagonism of CviR in the recombinant E. coli vioA-gfp assay. For these experiments, C6-HSL was held constant at 500 nM, while 4606-4237 was titrated from 1.3 nM to 100 μM (FIG. 3D). […] Importantly, no C. violaceum components other than CviR are present in the recombinant E. coli assay strain. Thus, any inhibition occurring would be due to a specific interaction between the antagonist molecule 4606-4237 and CviR rather than an interaction of 4606-4237 with some unknown component required for violacein production in C. violaceum.

Broadly, the IC50 is the concentration at which inhibition is half-maximal. Take `O=C(CCCOc1ccc(Cl)cc1)NC1CCOC1=O` (centres unmarked) [CL, chlorolactone]: the IC50 in experiment [1] was 295 nM; in experiment [3] (constant 500 nM C6-HSL, read-out: IC50 for inhibition of vioA-gfp expression), 377 nM. In experiment [2], the C. elegans lifespan entry is reported as “seven”.

Consider `O=C(CCCOc1ccc(Cl)cc1)NC1CCSC1=O` (centres unmarked) [CTL, Chloro-thiolactone], for which the IC50 came to 723 nM in experiment [1] and 1100 nM in experiment [3].
